Experimental data reported in patent US6200999A, “3-Alkoxyisoxazol-4-yl-substituted 2-amino carboxylic acid compounds” (H. Lundbeck A/S, priority 1996, dated 2001).
Counter-ions that a name gives are not always drawn.

Tests used:
AMPA receptors = settings: literature; cited from earlier work
NMDA receptor = experiment: Cortical wedge model, NMDA receptor (rat brain slices in vitro); assay type: cell-based; settings: receptor subtype NMDA; for pKi: antagonist
Method: (§1) The Cortical wedge model is a test in which slices of rat brain is examined in vitro in order to quantify the effect of ligands at the various Glu-receptors and evaluate the pharmacological profile of the ligands (i.e. agonist/antagonist properties). The test was performed as described by Harrison, N. L. and Simmonds, M. A. Br.J.Pharmacol. 1985, 84, 381-391 as modified according to Wheatley, P. L. Br.J.Pharmacol. 1986, 87, 159P.

AMPA receptor = experiment: Cortical wedge model, AMPA receptor (rat brain slices in vitro); assay type: cell-based; settings: receptor subtype AMPA; for EC50: agonists
Method: as §1

animals = settings: literature; cited from earlier work
[1] = literature; cited from earlier work

| Structure (SMILES) | Profile (AMPA receptor) | EC50 (AMPA receptor) [µM] | other results |
| --- | --- | --- | --- |
| Cc1onc(C(=O)O)c1CC(N)C(=O)O (racemic) [ACPA] |  |  | agonist effects at AMPA receptors (AMPA receptors): potent AMPA receptor agonist |
| NC(Cc1c(C(=O)O)on(Cc2ccccc2)c1=O)C(=O)O (racemic) [Compound 13, (RS)-2-Amino-3-(2-benzyl-5-carboxy-2,3-dihydro-3oxisoxazol-4-yl)propionic Acid, Hydrochloride, Monohydrate] |  |  | Profile (NMDA receptor): Antagonist; pKi (NMDA receptor): 3.5 |
| CCOc1noc(C(=O)O)c1CNc1c(N)c(=O)c1=O [Compound 17, [4-(2-Amino-3,4-dioxocyclobut-1-en-1-yl)aminomethyl]-3-ethoxyisoxazole-5-carboxylic Acid] |  |  | Profile (NMDA receptor): Antagonist; pKi (NMDA receptor): 3.3 |
| COc1noc(C(=O)O)c1CC(N)C(=O)O.O (racemic) [Compound 1, (RS)-2-Amino-3-(5-carboxy-3-methoxyisoxazol-4-yl)propionic Acid Hydrate] | Agonist | 1.2 |  |
| CCOc1noc(C(=O)O)c1CC(N)C(=O)O (racemic) [Compound 2, (RS)-2-Amino-3-(5-carboxy-3-ethoxyisoxazol-4-yl)propionic Acid] | Agonist | 4.8 |  |
| CC(C)Oc1noc(C(=O)O)c1CC(N)C(=O)O (racemic) [Compound 3, (RS)-2-Amino-3-(5-carboxy-3-isopropoxyisoxazol-4-yl)propionic Acid] | Agonist | 40 |  |
| NC(Cc1c(O)noc1-c1ccccc1)C(=O)O (racemic) [APPA, (RS)-2-Amino-3-(3-hydroxy-5-phenylisoxazol-4-yl)propionic acid] |  |  | agonist effects at AMPA receptors (AMPA receptors): weak but unique partial agonist profile |
| CCOc1noc(C(=O)O)c1C[C@H](N)C(=O)O [(S)-2, (S)-2-Amino-3-(5-carboxy-3-ethoxyisoxazol-4-yl)propionic Acid] | Agonist | 4.4 |  |
| CCCOc1noc(C(=O)O)c1CC(N)C(=O)O (racemic) [Compound 10, (RS)-2-Amino-3-(3-propoxy-5-carboxyisoxazol-4-yl)propionic Acid] | Agonist | 80 |  |
| CCOc1noc(-c2nnn[nH]2)c1CC(N)C(=O)O (racemic) [Compound 8, (RS)-2-Amino-3-[3-ethoxy-5-(5-tetrazolyl)isoxazol-4-yl]propionic acid] | Agonist | 2000 |  |
| CCCCOc1noc(C(=O)O)c1CC(N)C(=O)O (racemic) [Compound 11, (RS)-2-Amino-3-(3-butoxy-5-carboxisoxazol-4-yl)propionic Acid] | Part. Agonist | 325 |  |
| Cc1onc(O)c1CC(N)C(=O)O (racemic) [AMPA, (RS)-2-amino-3-(3-hydroxy-5-methylisoxazol-4-yl)propionic acid] |  |  | agonist effects at AMPA receptors (AMPA receptors): selective agonist effects at AMPA receptors |
| CCOc1noc(C(=O)O)c1C[C@@H](N)C(=O)O [(R)-2, (R)-2-Amino-3-(5-carboxy-3-ethoxyisoxazol-4-yl)propionic Acid] | Antagonist |  | pKi (AMPA receptor; antagonist): 3.28 |
| C=CCOc1noc(C(=O)O)c1CC(N)C(=O)O (racemic) [Compound 12, (RS)-2-Amino-3-(3-allyloxy-5-carboxyisoxazol-4-yl)propionic Acid] | Agonist | 40 |  |
| CC(C)(C)c1onc(O)c1CC(N)C(=O)O (racemic) [ATPA] |  |  | neurotoxic effects (animals): has not been reported to show neurotoxic effects in animals; systemic activity [1]: systemically active |
